The values that follow come from patent publication US12213984B2, “Immunoregulatory agent” (KYUSHU UNIVERSITY, NATIONAL UNIVERSITY CORPORATION, priority 2015, dated 2025).

Molecules are shown by their SMILES. pIC50: −log10 of the molar value. Read-outs that look alike come from different tables or passages of the source.

The target of the experiment is T1, DOCK2DHR-2 (lobe B and lobe C of the DHR-2 domain of DOCK2) (Homo sapiens, UniProt Q92608).
T1 construct: polypeptide fragments corresponding to a DHR-2 domain including the lobe B and the lobe C of DOCK2; Histidine-SUMO (N); made in house; host or cells: E. coli Arctic express DE3 (pET28a); Rac in E. coli BL21 DE3 (pGEX-6P-1)
T1 sequence (Q92608 1196-1622): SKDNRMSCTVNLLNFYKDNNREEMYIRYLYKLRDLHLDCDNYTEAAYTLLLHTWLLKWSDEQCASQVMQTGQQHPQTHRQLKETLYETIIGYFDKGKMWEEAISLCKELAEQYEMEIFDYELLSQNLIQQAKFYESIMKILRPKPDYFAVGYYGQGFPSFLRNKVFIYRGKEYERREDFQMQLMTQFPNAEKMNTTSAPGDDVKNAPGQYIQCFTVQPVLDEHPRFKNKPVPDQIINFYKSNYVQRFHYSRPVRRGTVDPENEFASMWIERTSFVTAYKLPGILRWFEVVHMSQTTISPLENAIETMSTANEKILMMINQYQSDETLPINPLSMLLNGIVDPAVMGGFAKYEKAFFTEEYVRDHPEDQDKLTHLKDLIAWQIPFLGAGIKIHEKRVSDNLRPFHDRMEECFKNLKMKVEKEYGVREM
Kind of experiment: in-vitro GEF assay, Rac activation by DOCK2 DHR-2 domain with various steroid compounds (Experimental Example 2). Type of experiment: biochemical. How it is done: An examination was performed using various steroid compounds to test their effects on the Rac activation induced by proteins composed of the lobe B and the lobe C of the DHR-2 domain of DOCK2.
As the steroid compounds, cholesterol 3-sulfate (hereinafter, referred to as “C3S” in some cases), cholesterol, cholesterol 3-acetate (hereinafter, referred to as “C3A” in some cases), pregnenolone 3-sulfate (hereinafter, referred to as “PREG3S” in some cases), dehydroepiandrosterone (hereinafter, referred to as “DHEA” in some cases), dehydroepiandrosterone 3-sulfate (hereinafter, referred to as “DHEA3S” in some cases), estrone 3-sulfate (hereinafter, referred to as “Estrone3S” in some cases), estriol 3-sulfate (hereinafter, referred to as “Estriol3S” in some cases), and estradiol 3-sulfate (hereinafter, referred to as “Estradiol3S” in some cases) were used.
More specifically, a DOCK2-DHR-2 domain protein prepared by the same method as described above was incubated for 20 minutes at room temperature in the presence of various steroid compounds at a predetermined concentration dissolved in DMSO or in the presence of DMSO alone (control) under the shielded condition from light, thereby preparing a pretreated substance of GEF. The concentration of DMSO was adjusted such that it became 3% (1% in the final reaction solution) in all samples. Then, by in-vitro GEF assay in which Rac and Bodipy-FL-GTP prepared by the same method as described above were used, Rac activation by the DHR-2 domain was measured.

Setting [1] is: Experimental Example 2, Table 1, read-out: IC50 against the Rac activation by DOCK2DHR-2.

Consider `CC(=O)O[C@H]1CC[C@@]2(C)C(=CC[C@H]3[C@@H]4CC[C@H]([C@H](C)CCCC(C)C)[C@@]4(C)CC[C@@H]32)C1` [C3A, cholesterol 3-acetate], for which, under setting [1], the negative logarithm of the IC50 (pIC50) (usually the negative decadic logarithm of the IC50, by convention in mol/L) was less than 3.70.

With `CC(C)CCC[C@@H](C)[C@H]1CC[C@H]2[C@@H]3CC=C4C[C@@H](O)CC[C@]4(C)[C@H]3CC[C@]12C` [Cholesterol, cholesterol], the pIC50 under setting [1] was less than 3.70.

On to `C[C@]12CC[C@H](OS(=O)(=O)O)CC1=CC[C@@H]1[C@@H]2CC[C@]2(C)C(=O)CC[C@@H]12` [DHEA3S, dehydroepiandrosterone 3-sulfate], for which the pIC50 under setting [1] was less than 3.70.

Molecule `C[C@]12CC[C@H](O)CC1=CC[C@@H]1[C@@H]2CC[C@]2(C)C(=O)CC[C@@H]12` [DHEA, dehydroepiandrosterone] gave a pIC50 (IC50 against the Rac activation by DOCK2DHR-2, Experimental Example 2, Table 1) of less than 3.70.

With `C[C@]12CC[C@@H]3c4ccc(OS(=O)(=O)O)cc4CC[C@H]3[C@@H]1CC[C@@H]2O` [Estradiol3S, estradiol 3-sulfate], the pIC50 under setting [1] is less than 3.70.

For `C[C@]12CC[C@@H]3c4ccc(OS(=O)(=O)O)cc4CC[C@H]3[C@@H]1C[C@@H](O)[C@@H]2O` [Estriol3S, estriol 3-sulfate], the pIC50 under setting [1] is less than 3.70.

Regarding `C[C@]12CC[C@@H]3c4ccc(OS(=O)(=O)O)cc4CC[C@H]3[C@@H]1CCC2=O` [Estrone3S, estrone 3-sulfate], under setting [1], the negative logarithm of the IC50 (pIC50) is less than 3.70.

As for `CC(=O)C1CCC2C3CC=C4CC(OS(=O)(=O)O)CCC4(C)C3CCC12C` (centres unmarked) [PREG3S, pregnenolone 3-sulfate], the pIC50 under setting [1] is 4.12.
